# According to publication PMC10319809, “Chronic UCN2 treatment desensitizes CRHR2 and improves insulin sensitivity” (Nature Communications, 2023):
# Where no end group is shown, it is not given here.
# Legend:
# hCRHR2α Gq = target: T1, hCRHR2α Gq (Homo sapiens, UniProt Q13324); test: ebBRET EMTA, Gq biosensor; assay type: cell-based; details: HEK293 cells, CRHR2a, n = 2 independent experiments
# T1 construct: expressed in transfected cells; host or cells: HEK293 cells (Millipore Sigma), transient PEI co-transfection with biosensor plasmids at Domain Therapeutics
# T1 sequence (Q13324 1-411): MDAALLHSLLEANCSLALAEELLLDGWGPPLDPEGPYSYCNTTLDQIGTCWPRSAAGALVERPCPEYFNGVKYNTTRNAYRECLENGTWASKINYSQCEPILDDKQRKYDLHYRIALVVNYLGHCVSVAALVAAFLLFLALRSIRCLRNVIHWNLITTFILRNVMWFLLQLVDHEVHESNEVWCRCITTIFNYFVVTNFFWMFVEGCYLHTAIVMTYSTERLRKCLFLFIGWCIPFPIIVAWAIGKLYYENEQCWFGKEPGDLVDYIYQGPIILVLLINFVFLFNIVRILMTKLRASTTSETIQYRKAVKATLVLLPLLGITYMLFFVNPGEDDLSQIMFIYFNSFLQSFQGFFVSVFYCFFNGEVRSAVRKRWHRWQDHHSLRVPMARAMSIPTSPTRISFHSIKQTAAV
# Procedure: Typically, GPCR desensitization is carried out through the recruitment of β-Arrestins or alternative G-proteins to the receptor. To identify whether these proteins are recruited to CRHR2 in response to UCN2, enhanced bystander bioluminescence resonance energy transfer (ebBRET)-based effector membrane translocation assays (EMTA) were carried out in HEK293 cells[28],[29]. Cells were co-transfected with plasmids expressing unmodified CRHR2a (alpha isoform) and one of various pathway-specific biosensors. […]
# Effector membrane translocation biosensor assays (bioSensAll®) were conducted at Domain Therapeutics NA Inc. (Montreal, QC, Canada) and described in cells[28],[29]. […] Briefly, DNA and PEI were diluted separately in 150 mM NaCl, mixed and then incubated for at least 20 min at room temperature (note: salmon sperm DNA (Invitrogen) was used to adjust the total amount of DNA transfected to a final quantity of 1 ug per mL of cell culture to be transfected). During the 20-minute incubation, HEK293 cells were detached, counted and resuspended into cell culture medium to a final density of 350,000 cells per mL. […] Cells were then incubated at room temperature for 10 min and BRET readings subsequently collected with a 0.4 s integration time on a Synergy NEO plate reader (BioTek Instruments, Inc., USA; filters: 400 nm/70 nm, 515 nm/20 nm). […]
# WT animals = test: Blood glucose and plasma insulin 15 min after intraperitoneal UCN2; assay type: in vivo, mouse; details: 1 mg/kg IP, 15 min post-dose; n = 5
# Procedure: WT animals were injected IP with 1 mg/kg recombinant UCN2 or an equivalent volume of saline. Blood glucose and plasma insulin measurements were made pre-injection and 15 min post-dose. 20 min after the injection animals were euthanized and gastrocnemius muscle was dissected and snap-frozen in liquid nitrogen. The tissue was pulverized and homogenized in 700 ul SDS-buffer (0.1 M Tris/HCl 7.6, 4% SDS, 0.1 mM DTT), heated for 5 min at 95 °C and sonicated (Bioruptor®Plus Diagenode, 30 sec on-30sec off cycle for 10 cycles). After centrifugation for 10 min at 10,000 x g at 15 °C, the proteins in the supernatant were precipitated with 4X (volumes) ice-cold acetone (−20 °C) and stored at −20 °C overnight. The precipitates were centrifuged for 15 min at 10,000 × g, acetone was decanted, and the resulting pellets were dried for 10 min at room temperature. The pellet was resuspended in 500ul denaturing buffer (8 M urea and 10 mM Tris, pH 8.5) and sonicated (Bioruptor®Plus Diagenode, 30 s on-30 s off cycle for 5 cycles). The protein concentration was determined with a Bradford assay (Bio-Rad, Hercules, CA, USA). The proteins were reduced with dithiothreitol (DTT) 5 mM final concentration for 60 min at 37 °C and alkylated with iodoacetamide (8 mM final concentration) for 45 min at RT in the dark. […]
substance,measurement,setting,value
"IVLSLDVPIGLLQILLEQARARAAREQATTNARILARVGHC-NH2 (C-terminus assumed) [UCN2, Urocortin 2]",Gq recruitment,hCRHR2α Gq,not recruited
same,blood glucose levels after injection,WT animals,significantly increased blood glucose levels
same,plasma insulin after injection,WT animals,no significant difference
